Read-outs that look alike come from different tables or passages of the source.
Key:
[1] = female, SCID, mouse, in vivo
[2] = mouse, plasma, 1 h, 10 µM

| Compound | % Remaining (1 h) [2] [%] | also measured |
| --- | --- | --- |
| CCNC(=O)c1nnc(-c2cc(C(C)C)c(O)cc2O)n1-c1ccc2c(c1)CN(C(=O)c1ccc(S(=O)(=O)Oc3ccc4nc5c(c(CC)c4c3)Cn3c-5cc4c(c3=O)COC(=O)C4(O)CC)cc1)C2 (stereo not shown) [SDC-TRAP-0393, 4,11-diethyl-4-hydroxy-3,14-dioxo-3,4,12,14-tetrahydro-1H-pyrano[3′,4′:6,7]indolizino[1,2-b]quinolin-9-yl 4-(5-(3-(2,4-dihydroxy-5-isopropylphenyl)-5-(ethylcarbamoyl)-4H-1,2,4-triazol-4-yl)isoindoline-2-carbonyl)benzenesulfonate] | 47.8 | – |
| CCc1c2c(nc3ccc(OS(=O)(=O)c4ccc(C(=O)N5CCC(CCn6ccc7cc(-n8c(O)nnc8-c8cc(C(C)C)c(O)cc8O)ccc76)CC5)cc4)cc13)-c1cc3c(c(=O)n1C2)COC(=O)C3(O)CC (stereo not shown) [SDC-TRAP-0390, 4,11-diethyl-4-hydroxy-3,14-dioxo-3,4,12,14-tetrahydro-1H-pyrano[3′,4′:6,7]indolizino[1,2-b]quinolin-9-yl 4-(4-(2-(5-(3-(2,4-dihydroxy-5-isopropylphenyl)-5-hydroxy-4H-1,2,4-triazol-4-yl)-1H-indol-1-yl)ethyl)piperidine-1-carbonyl)benzenesulfonate] | 92.5 | – |

More lines, main results first:

| % Remaining (1 h) [2] [%] | Compound | also measured |
| --- | --- | --- |
| 91.1 | CC(C)c1cc(-c2nnc(O)n2-c2ccc(CC3CCN(CC(=O)Nc4cccc5c4CN(C4CCC(=O)NC4=O)C5=O)CC3)cc2)c(O)cc1O (stereo not shown) [SDC-TRAP-0116, 2-(4-(4-(3-(2,4-dihydroxy-5-isopropylphenyl)-5-hydroxy-4H-1,2,4-triazol-4-yl)benzyl)piperidin-1-yl)-N-(2-(2,6-dioxopiperidin-3-yl)-1-oxoisoindolin-4-yl) acetamide] | Tumor Conc. ([1]; 1 h): 13.7 nmol/g of tissue; Tumor Conc. ([1]; 6 h): 6.09 nmol/g of tissue; Tumor Conc. ([1]; 24 h): 2.78 nmol/g of tissue; Tumor Conc. ([1]; 48 h): 1.46 nmol/g of tissue; Tumor Conc. ([1]; […]): 17.7 nmol/g of tissue |
| 108 | CCNC(=O)c1nnc(-c2cc(C(C)C)c(O)cc2O)n1-c1ccc(CN2CCC(C(=O)N3CCC(n4cc(-c5cnc(N)c(O[C@H](C)c6c(Cl)ccc(F)c6Cl)c5)cn4)CC3)CC2)cc1 [SDC-TRAP-0134, (R)-4-(4-((4-(4-(4-(6-amino-5-(1-(2,6-dichloro-3-fluorophenyl)ethoxy)pyridin-3-yl)-1H-pyrazol-1-yl)piperidine-1-carbonyl)piperidin-1-yl)methyl)phenyl)-5-(2,4-dihydroxy-5-isopropylphenyl)-N-ethyl-4H-1,2,4-triazole-3-carboxamide] | – |
| 93.0 | CCNC(=O)c1nnc(-c2cc(C(C)C)c(O)cc2O)n1-c1ccc(CN2CCC(C(=O)N[C@H](C(=O)Nc3cccc4c3CN(C3CCC(=O)NC3=O)C4=O)C(C)C)CC2)cc1 (stereo partly drawn) [SDC-TRAP-0163, 1-(4-(3-(2,4-dihydroxy-5-isopropylphenyl)-5-(ethylcarbamoyl)-4H-1,2,4-triazol-4-yl)benzyl)-N-((2S)-1-((2-(2,6-dioxopiperidin-3-yl)-1-oxoisoindolin-4-yl)amino)-3-methyl-1-oxobutan-2-yl)piperidine-4-carboxamide] | – |

From patent US10828315B2 (Madrigal Pharmaceuticals, Inc., priority 2013, dated 2020)
